Key:
db/db mice [1] = test: Pancreatic tissue protecting action: number and maximum area of Langerhans islets in pancreatic sections of db/db mice; type: in vivo; conditions: for Maximum area of Langerhans islets on administration × 10^3 / The numbers of Langerhans islets in sections on 43rd day of administration: 1 μg/animal orally once a day for 42 days; for Maximum area of Langerhans islets on administration × 10^3: negative sample 44.5 ± 17.7; for The numbers of Langerhans islets in sections on 43rd day of administration: pancreatic sections of 3 positions, HE staining, negative sample 40.3 ± 9.7; for Action of protecting pancreatic tissues, especially endocrine cells: 42 days oral
From the text: In this test, the pancreatic tissue protecting action of compounds having a lophenol skeleton was examined by using db/db mice known as a model animal of pancreatic hypofunction or pancreatic tissue dysfunction.
4-methyl-cholest-7-en-3-ol produced in Preparation Example mentioned above was used as test sample 1, 4-methyl-ergost-7-en-3-ol was used as test sample 2, 4-methyl-stigmast-7-en-3-ol was used as test samples 3. Further, β-sitosterol (Tama Biochemical Co., Ltd.) was used as a control sample.
In this test, 6-week old male db/db mice (purchased from Clea Japan, Inc.) were used. These mice were divided into groups, each consisting of 7 animals. Each test sample was dissolved in DMSO, and the concentration was adjusted to 1 μg/mL with physiological saline. The final DMSO concentration was adjusted to 0.2%. The model mice were orally administered with 1 mL of the test sample once a day everyday for 42 days with a sonde. On the 43rd day of the continuous administration, the pancreas was extracted, divided into three portions of upstream, midstream and downstream from the duodenum side, and fixed with a formalin solution, and then paraffin blocks were prepared in a conventional manner. Section slides were prepared from the paraffin blocks, and subjected to hematoxylin-eosin staining. The numbers of Langerhans islets existing on the sections of the 3 position of the pancreas, and area of Langerhans islet having the maximum area on each section were measured by using an ocular micrometer on a microscope (“ECLIPSE E600”, NIKON CORP.).

db/db mice [2] = test: Serum insulin level (insulin production ability protecting action) in db/db mice after 42 days of oral administration; type: in vivo; conditions: for Serum insulin levels on 43rd day of administration: male db/db mice, ELISA, negative sample 1.99 ± 0.66; for Pancreatic function (insulin production ability) protecting effect: 0.1 μg/animal; for Pancreatic function (insulin production ability) protecting effect / Serum insulin level as % of that observed in the negative test: 43rd day of continuous administration, db/db mice; for Serum insulin level as % of that observed in the negative test: 1 μg/animal
Experimental: In this test, the endocrine gland cell functions (insulin production ability) protecting action of compounds having a lophenol skeleton was evaluated by using db/db mice known as a model animal of pancreatic hypofunction or pancreatic tissue dysfunction.
4-methyl-cholest-7-en-3-ol produced in Preparation Example mentioned above was used as test sample 1, 4-methyl-ergost-7-en-3-ol was used as test sample 2, and 4-methyl-stigmast-7-en-3-ol was used as test samples 3.
In this test, 6-week old male db/db mice (purchased from Clea Japan, Inc.) were used. These mice were divided into groups, each consisting of 7 animals. Each test sample was dissolved in DMSO, and the concentration was adjusted to 0.1 or 1 μg/mL with physiological saline. The final DMSO concentration was adjusted to 0.2%. The pancreas dysfunction model mice were orally administered with 1 mL of the test sample once a day everyday for 42 days with a sonde. The serum insulin level was measured on the 43rd day of the continuous administration by using Lbis insulin mouse ELISA kit (Shibayagi Co., Ltd).

[3] = 0.1 μg/animal orally once a day for 42 days
[4] = 1 μg/animal orally once a day for 42 days

Row | Structure (SMILES) | Maximum area of Langerhans islets on administration × 10^3 (db/db mice [1]; 43rd day) | The numbers of Langerhans islets in sections on 43rd day of administration (db/db mice [1]) | Pancreatic function protecting effect (db/db mice [1]; 1 μg/animal, 43rd day) | Change of numbers and maximum areas of Langerhans islets (db/db mice [1]; 1 μg/animal, 43rd day, versus negative sample) | Serum insulin levels on 43rd day of administration (db/db mice [2]; [3]) | Pancreatic function (insulin production ability) protecting effect (db/db mice [2]) | Serum insulin levels on 43rd day of administration (db/db mice [2]; [4]) | Serum insulin level as % of that observed in the negative test (db/db mice [2]) | Maximum area of Langerhans islets, times as large as that observed in the negative test (db/db mice [1]; 1 μg/animal, 43rd day) | Number of Langerhans islets as % of the number in the negative sample-administered mice (db/db mice [1]; 1 μg/animal, 43rd day) | Action of protecting pancreatic tissues, especially endocrine cells (db/db mice [1]; 1 μg/animal)
1 | CC[C@H](CC[C@@H](C)[C@H]1CC[C@H]2[C@@H]3CC=C4C[C@@H](O)CC[C@]4(C)[C@H]3CC[C@]12C)C(C)C [Control sample, β-sitosterol, reference compound] | 69.1 ± 40.6 × 10^3 μm^2 | 42.3 ± 20.1 piece | any pancreatic function protecting effect was not observed | don't show any significant change |  |  |  |  |  |  | 
2 | CC(C)CCCC(C)C1CCC2C3=CCC4C(C)C(O)CCC4(C)C3CCC21C (stereo not shown) [Test sample 1, 4-methyl-cholest-7-en-3-ol] | 160.0 ± 116.0 × 10^3 μm^2 | 75.7 ± 24.7 piece |  |  | 2.33 ± 1.23 ng/mL | any significant pancreatic function protecting effect was not observed | 3.67 ± 0.80 ng/mL | 184% | 3.6 times | 188% | had an action of protecting pancreatic tissues
3 | CC(C)C(C)CCC(C)C1CCC2C3=CCC4C(C)C(O)CCC4(C)C3CCC21C (stereo not shown) [Test sample 2, 4-methyl-ergost-7-en-3-ol] | 178.7 ± 143.4 × 10^3 μm^2 | 64.1 ± 9.1 piece |  |  | 2.32 ± 1.52 ng/mL | any significant pancreatic function protecting effect was not observed | 4.17 ± 2.23 ng/mL | 210% | 4 times | 159% | had an action of protecting pancreatic tissues
4 | CCC(CCC(C)C1CCC2C3=CCC4C(C)C(O)CCC4(C)C3CCC21C)C(C)C (stereo not shown) [Test sample 3, 4-methyl-stigmast-7-en-3-ol] | 122.6 ± 51.4 × 10^3 μm^2 | 60.4 ± 11.6 piece |  |  | 2.23 ± 0.68 ng/mL | any significant pancreatic function protecting effect was not observed | 4.20 ± 1.86 ng/mL | 211% | 2.8 times | 150% | had an action of protecting pancreatic tissues

Source: patent US8101594B2, “Method for improving pancreatic functions” (Morinaga Milk Industry Co., Ltd., priority 2005, dated 2012)
